Results: patent US6479501B2 (priority 1996, dated 2002)
Where a name gives a salt, the structure may show the parent alone. Read-outs that look alike come from different tables or passages of the source.

Legend:
Monoamine Oxidase A = target: T1, Monoamine Oxidase A (Rattus norvegicus, UniProt P21396); assay: in vitro inhibition of monoamine oxidase assay, monoamine oxidase-A; assay type: biochemical, Male Wistar rats; conditions: rat brain mitochondrial monoamine oxidase; substrate [3H]-5-hydroxytryptamine 200 μM; 30 minutes at 37° C.
T1 construct: serves as the tissue source for mitochondrial monoamine oxidase; from tissue; host or cells: rat whole brain minus cerebellum, P2 mitochondrial pellet
T1 sequence (P21396 1-526): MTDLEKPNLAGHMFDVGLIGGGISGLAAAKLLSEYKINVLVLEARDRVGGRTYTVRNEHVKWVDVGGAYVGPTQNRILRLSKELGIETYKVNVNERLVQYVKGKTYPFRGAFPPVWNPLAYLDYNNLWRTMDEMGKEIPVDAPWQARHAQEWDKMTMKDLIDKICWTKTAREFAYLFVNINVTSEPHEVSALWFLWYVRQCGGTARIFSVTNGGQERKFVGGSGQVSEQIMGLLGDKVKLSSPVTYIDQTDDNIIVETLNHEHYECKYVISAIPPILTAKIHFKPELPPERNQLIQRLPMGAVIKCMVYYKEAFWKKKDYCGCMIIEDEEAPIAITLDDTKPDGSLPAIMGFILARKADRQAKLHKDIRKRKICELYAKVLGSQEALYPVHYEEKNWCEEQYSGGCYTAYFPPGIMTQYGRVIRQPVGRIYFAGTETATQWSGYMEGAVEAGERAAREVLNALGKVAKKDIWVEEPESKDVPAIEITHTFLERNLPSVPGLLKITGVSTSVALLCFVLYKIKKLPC
Experimental: In this assay, a modification of an assay described by M. V. Kindt, et al., Europ. J. Pharmnacol. 146: 313-318 1988.
1. Phosphate buffer (0.5 M), pH 7.4; 134.4 g dibasic sodium phosphate heptahydrate q.s. to 1 liter in distilled water (A) 17.3 g monobasic sodium phosphate q.s. to 250 ml in distilled water (B) Adjust pH of A to 7.4 by slowly adding B (volumes as needed) Dilute 1:10 in distilled water (0.05 M phosphate buffer, pH 7.4) 2. 0.25 M Sucrose (phosphate buffered): 21.4 g sucrose, q.s. to 250 nil with 0.05 M phosphate buffer a. serotonin creatine sulphate (5-hydroxytryptamine) is obtained from Sigma Chemical Company. A 5 mM stock solution ig made up in 0.01 N-hydrochloric acid. The solution is used to dilute the specific activity of the [^3H]-hydroxytryptamine. […]
b. [^3H]-5-hydroxytryptamine binoxalate (20-30 Ci/mmol) is obtained from New England Nuclear. c. Add 12 μl of [^3H]-5-hydroxytryptamine to 2 ml of the 5 mM 5-hydroxytryptamine solution. (Final amine concentration in the assay is 200 μM: see below.)
5. Equal amounts of monoamine oxidase-A (5-hydroxyttyptamine) and monoamine oxidase-B (β-phenethylamine) substrates are combined for simultaneously testing both monoamine oxidase types, i.e., mixed stock solution of 2.5 mM 5-hydroxytryptamine and 2.5 mM β-phenethylamine. 40 μl of this mixed solution gives a 200 μM final concentration of each amine in the assay. When testing only one monoamine oxidase type, the individual 5 mM stock solutions must be diluted 1:1 with distilled water prior to adding 40 μl to the incubation mixture; i.e., same 200 μM final amine concentration.
6. Stock solutions of test drugs are made up in appropriate vehicles and serially diluted to give final concentrations ranging from 10^−7 to 10^−3 molar in the assay. […]
Tubes are preincubated for 15 minutes at 37° C. and the assay is started by adding 40 μl of combined substrate ([^3H]-5-hydroxytryptamine and [^14C]-β-phenethylamin) at 15 second intervals. […] Tissue blank values are determined by adding the acid before the radioactive substrate. […] IC50 values are determined by log-probit analysis.

Monoamine Oxidase B = target: T2, Monoamine Oxidase B (Rattus norvegicus, UniProt P19643); assay: in vitro inhibition of monoamine oxidase assay, monoamine oxidase-B; assay type: biochemical, Male Wistar rats; conditions: rat brain mitochondrial monoamine oxidase; substrate [14C]-β-phenethylamine 200 μM; 30 minutes at 37° C.
T2 construct: serves as the tissue source for mitochondrial monoamine oxidase; from tissue; host or cells: rat whole brain minus cerebellum, P2 mitochondrial pellet
T2 sequence (P19643 1-520): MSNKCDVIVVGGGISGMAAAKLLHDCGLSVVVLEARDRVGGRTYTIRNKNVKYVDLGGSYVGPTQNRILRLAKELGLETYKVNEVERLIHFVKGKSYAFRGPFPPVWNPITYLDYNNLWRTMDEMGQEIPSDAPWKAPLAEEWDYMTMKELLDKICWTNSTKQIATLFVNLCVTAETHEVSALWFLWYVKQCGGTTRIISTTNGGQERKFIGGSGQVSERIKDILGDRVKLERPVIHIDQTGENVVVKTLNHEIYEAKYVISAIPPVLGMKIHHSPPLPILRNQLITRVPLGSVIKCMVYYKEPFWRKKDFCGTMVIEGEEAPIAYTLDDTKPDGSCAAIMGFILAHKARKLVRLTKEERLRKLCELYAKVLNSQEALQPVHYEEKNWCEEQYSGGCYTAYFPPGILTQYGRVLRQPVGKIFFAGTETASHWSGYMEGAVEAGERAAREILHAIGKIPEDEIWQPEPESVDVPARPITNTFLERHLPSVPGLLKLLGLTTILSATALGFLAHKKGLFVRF
Experimental: Phosphate buffer (0.5 M), pH 7.4; 134.4 g dibasic sodium phosphate heptahydrate q.s. to 1 liter in distilled water (A) 17.3 g monobasic sodium phosphate q.s. to 250 ml in distilled water (B) Adjust pH of A to 7.4 by slowly adding B (volumes as needed) Dilute 1:10 in distilled water (0.05 M phosphate buffer, pH 7.4) 2. 0.25 M Sucrose (phosphate buffered): 21.4 g sucrose, q.s. to 250 nil with 0.05 M phosphate buffer a. β-phenethylamine is obtained from Sigma Chemical Company. A 5 mM stock solution is made up in 0.01 N-hydrochloric acid. The solution is used to dilute the specific activity of the [^14C]-β-phenethylamine.
b. β-[ethyl-1-^14C]-phenethylamine hydrochloride (40-50 mCi/mmol) is obtained from New England Nuclear. c. Add 12 μl of [^14C]-β-phenothylaamine to 2 ml of the 5 mM β-phenethylamine solution. (Final amine concentration in the assay is 200 μM: see below.) […]

Acetylcholinesterase = target: T3, Acetylcholinesterase (Rattus norvegicus, UniProt P37136); assay: biochemical; design: species or system Male Wistar rats
T3 construct: corpora striata dissected free, weighted and homogenized in 19 volumes; from tissue; host or cells: rat corpus striatum homogenate
T3 sequence (P37136 32-614): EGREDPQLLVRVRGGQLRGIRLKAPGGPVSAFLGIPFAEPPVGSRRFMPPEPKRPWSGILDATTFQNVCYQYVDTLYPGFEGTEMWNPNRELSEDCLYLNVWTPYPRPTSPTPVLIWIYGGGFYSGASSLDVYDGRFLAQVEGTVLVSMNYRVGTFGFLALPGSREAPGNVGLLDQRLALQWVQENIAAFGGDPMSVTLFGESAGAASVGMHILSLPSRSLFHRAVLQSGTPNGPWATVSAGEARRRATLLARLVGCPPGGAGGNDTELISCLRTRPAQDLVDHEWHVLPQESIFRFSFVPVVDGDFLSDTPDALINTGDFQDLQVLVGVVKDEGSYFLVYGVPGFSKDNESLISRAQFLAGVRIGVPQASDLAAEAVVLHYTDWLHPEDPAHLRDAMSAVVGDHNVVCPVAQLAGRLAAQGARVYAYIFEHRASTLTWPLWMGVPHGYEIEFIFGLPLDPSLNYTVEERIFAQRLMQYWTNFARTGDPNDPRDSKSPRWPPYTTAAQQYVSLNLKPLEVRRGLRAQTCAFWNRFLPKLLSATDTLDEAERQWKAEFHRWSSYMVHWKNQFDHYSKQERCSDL

For `COc1ccc(NN=C2CCCC23CCNCC3)cc1` (as salt: hydrochloride) [8-Azaspiror4,5]decane-1-[N′-(4-methoxy)phenyl]hydrazone hydrochloride], which melting point is on record?
Its melting point is 252 to 253 °C.

For `COc1cccc(CN2CCC3(CCc4c3n(C)c3ccccc43)CC2)c1` [1,4-Dihydro-1′-(3-methoxyphenyl)methyl-4-methylspiro[cyclopent[b]indole-3(2H), 4′piperidine]], which IC50 (Monoamine Oxidase A) is on record?
The IC50 was 51.2 µM.

For `COc1ccc(CN2CCC3(CCc4c3n(C)c3ccccc43)CC2)cc1` [1,4-Dihydro-1′-(4-methoxyphenyl)methyl-4-methylspiro[cyclopent[b]indole-3(2H), 4′-piperidine]], which IC50 (Monoamine Oxidase B) is on record?
Its IC50 is 125 µM.

What about the IC50 (Acetylcholinesterase; read-out: Inhibition of Acetylcholinesterase Activity IC50) of the same molecule?
The IC50 was 65.2 µM.

And the IC50 (Monoamine Oxidase A)?
Its IC50 is 98.6 µM.

For `Cn1c2c(c3ccccc31)CCC21CCNCC1` [1,4-Dihydro-4-methylspiro[cyclopent[b]indole-3(2H), 4′-piperidine]hydrochloride], which IC50 (Acetylcholinesterase) is on record?
Its IC50 is 84.1 µM.

With `CN(C)C(=O)Oc1ccc2c(c1)c1c(n2C)C2(CCNCC2)CC1` [1,4-Dihydro-7-dimethylaminocarbonyloxy-4-methylspirorcyclopentfblindole-3(2H), 4′-piperidine]hemihydrate] as the molecule, how does the IC50 (Acetylcholinesterase) read?
The IC50 was 64 µM.

With `Cn1c2c(c3cc(O)ccc31)CCC21CCN(Cc2ccccc2)CC1` [1,4-Dihydro-7-hydroxy-4-methyl-1′-phenylmethylspiro[cyclopent[b]indole-3(2H), 4′-piperidine hydrochloride] as the molecule, how does the IC50 (Acetylcholinesterase) read?
The IC50 was 20.4 µM.

Which results are given for `COc1ccc(NN=C2CCCC23CCNCC3)cc1` [8-Azaspiror4,5]decane-1-[N′-(4-methoxy)phenyl]hydrazone hydrochloride]?
IC50 (Monoamine Oxidase B): 3.7 µM; IC50 (Monoamine Oxidase A): 37.2 µM
